Test results as given in PubChem BioAssay AID248 (DTP/NCI, 2004).
Values joined by “and” are separate entries in the source; they are usually repeats but may differ in a detail not shown here. Identical values can stand only once. Inconclusive results and toxic doses are left out. No stated cut-off is given here; in the data, active means T/C of 150% or more; inactive means T/C below 125%.

Test system: L1210 leukemia ip in BDF1 mice, survival T/C
Experiment: NCI In Vivo Anticancer Drug Screen. Data for tumor model L1210 Leukemia (intraperitoneal) in B6D2F1 (BDF1) mice
Settings: endpoint: mean survival time, higher = longer survival
How it was run: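 Each compound was tested against a transplantable tumor grown in mice. The endpoint was survival, with treated animals benchmarked against vehicle controls as a simple ratio.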

[1] = dose: 100.0 mg/kg/injection, schedule: Q01DX009 (ip), vehicle: saline with Tween-80
[2] = dose: 100.0 mg/kg/injection, schedule: Q04DX003 (ip), vehicle: saline with Tween-80
[3] = dose: 200.0 mg/kg/injection, schedule: Q01DX009 (ip), vehicle: saline with Tween-80
[4] = dose: 200.0 mg/kg/injection, schedule: Q04DX003 (ip), vehicle: saline with Tween-80
[5] = dose: 400.0 mg/kg/injection, schedule: Q01DX009 (ip), vehicle: saline with Tween-80
[6] = dose: 400.0 mg/kg/injection, schedule: Q04DX003 (ip), vehicle: saline with Tween-80
[7] = dose: 100.0 mg/kg/injection, schedule: Q04DX003 (ip), vehicle: saline
[8] = dose: 200.0 mg/kg/injection, schedule: Q04DX003 (ip), vehicle: saline
[9] = dose: 400.0 mg/kg/injection, schedule: Q04DX003 (ip), vehicle: saline
[10] = dose: 100.0 mg/kg/injection, schedule: Q01DX001 (ip), vehicle: carboxymethylcellulose (CMC)
[11] = dose: 200.0 mg/kg/injection, schedule: Q01DX001 (ip), vehicle: carboxymethylcellulose (CMC)
[12] = dose: 25.0 mg/kg/injection, schedule: Q01DX009 (ip), vehicle: saline
[13] = dose: 25.0 mg/kg/injection, schedule: Q04DX003 (ip), vehicle: saline
[14] = dose: 50.0 mg/kg/injection, schedule: Q01DX009 (ip), vehicle: saline
[15] = dose: 50.0 mg/kg/injection, schedule: Q04DX003 (ip), vehicle: saline
[16] = dose: 100.0 mg/kg/injection, schedule: Q01DX009 (ip), vehicle: Klucel (hydroxypropylcellulose) (HPC)
[17] = dose: 100.0 mg/kg/injection, schedule: Q04DX003 (ip), vehicle: Klucel (hydroxypropylcellulose) (HPC)
[18] = dose: 200.0 mg/kg/injection, schedule: Q01DX009 (ip), vehicle: Klucel (hydroxypropylcellulose) (HPC)
[19] = dose: 200.0 mg/kg/injection, schedule: Q04DX003 (ip), vehicle: Klucel (hydroxypropylcellulose) (HPC)

Measured: T/C

COc1ccc(NC(=O)Nc2ccccc2Cl)c(OC)c1
inactive: dose: 100.0 mg/kg/injection, schedule: Q04DX002 (ip), vehicle: saline with Tween-80 87 % of control | dose: 400.0 mg/kg/injection, schedule: Q04DX002 (ip), vehicle: saline with Tween-80 87 % of control

COc1ccc(CC2C(=O)NC(C)C(=O)N(C)C3C(=O)N(C)C(Cc4ccc(O)c(c4)Oc4ccc(cc4)C3O)C(=O)NC(C)C(=O)NC(C)C(=O)N2C)cc1 (configuration not stated) (tested in a mixture with another compound)
inactive: dose: 0.25 mg/kg/injection, schedule: Q01DX009 (ip), vehicle: saline 112 % of control | dose: 0.5 mg/kg/injection, schedule: Q01DX009 (ip), vehicle: carboxymethylcellulose (CMC) 114 % of control | dose: 0.5 mg/kg/injection, schedule: Q01DX009 (ip), vehicle: saline 122 % of control | dose: 1.0 mg/kg/injection, schedule: Q01DX009 (ip), vehicle: carboxymethylcellulose (CMC) 115 % of control | dose: 1.0 mg/kg/injection, schedule: Q01DX009 (ip), vehicle: saline 120 % of control | dose: 2.0 mg/kg/injection, schedule: Q01DX009 (ip), vehicle: carboxymethylcellulose (CMC) 117 % of control | dose: 2.0 mg/kg/injection, schedule: Q01DX009 (ip), vehicle: saline 117 % of control

CC(=O)CC(=O)NC(C)CCc1ccccc1 (configuration not stated)
inactive: [1] 92 % of control | [2] 98 % of control | [3] 92 % of control | [4] 102 % of control | [5] 104 % of control | [6] 98 % of control

C=C1c2[nH]c3ccccc3c2C2C(CC)C1CCN2C (configuration not stated)
inactive: dose: 30.0 mg/kg/injection, schedule: Q01DX Z (ip), vehicle: olive oil, sesame oil, peanut oil 102 % of control | dose: 50.0 mg/kg/injection, schedule: Q01DX Z (ip), vehicle: olive oil, sesame oil, peanut oil 98 % of control

O=c1[nH]c(=O)n(C2CC=CO2)cc1F (configuration not stated)
inactive: [7] 111 % of control | [8] 113 % of control | [9] 117 % of control

O=c1c2ncn(C3OC(CO)C(O)C3O)c2nc2n1N=CC(O)N2 (configuration not stated)
inactive: dose: 100.0 mg/kg/injection, schedule: Q01DX005 (ip), vehicle: saline 120 % of control | dose: 200.0 mg/kg/injection, schedule: Q01DX005 (ip), vehicle: saline 120 % of control

Nc1c(Cl)ncnc1NC1CCC(CO)C1 (configuration not stated)
inactive: [10] 103 % of control | [11] 106 % of control

N#Cc1c(C#N)c(/N=C/c2ccccc2)n(/N=C/c2ccccc2)c1N
inactive: dose: 87.5 mg/kg/injection, schedule: Q04DX003 (ip), vehicle: other 91 % of control | dose: 175.0 mg/kg/injection, schedule: Q04DX003 (ip), vehicle: other 93 % of control | dose: 350.0 mg/kg/injection, schedule: Q04DX003 (ip), vehicle: other 95 % of control

CC12CCC(O)CC1=CCC1C2CCC2(C)C1CCC2(O)C#CCN(CCCl)CCCl (configuration not stated)
inactive: dose: 50.0 mg/kg/injection, schedule: Q04DX003 (sc), vehicle: steriod suspending solution 93 % of control | dose: 100.0 mg/kg/injection, schedule: Q04DX003 (sc), vehicle: steriod suspending solution 112 % of control | dose: 200.0 mg/kg/injection, schedule: Q04DX003 (sc), vehicle: steriod suspending solution 100 % of control | dose: 400.0 mg/kg/injection, schedule: Q04DX003 (sc), vehicle: steriod suspending solution 99 % of control

N/C(=N/N=C/c1cc(Cl)ccc1O)N/N=C\c1cc(Cl)ccc1O
inactive: dose: 15.0 mg/kg/injection, schedule: Q01DX Z (ip), vehicle: methylcellulose (MC) 107 % of control | dose: 30.0 mg/kg/injection, schedule: Q01DX Z (ip), vehicle: methylcellulose (MC) 104 % of control | dose: 60.0 mg/kg/injection, schedule: Q01DX Z (ip), vehicle: methylcellulose (MC) 119 % of control | dose: 60.0 mg/kg/injection, schedule: Q01DX Z (oral), vehicle: methylcellulose (MC) 94 % of control | dose: 120.0 mg/kg/injection, schedule: Q01DX Z (ip), vehicle: methylcellulose (MC) 108 % of control | dose: 120.0 mg/kg/injection, schedule: Q01DX Z (oral), vehicle: methylcellulose (MC) 93 % of control | dose: 240.0 mg/kg/injection, schedule: Q01DX Z (oral), vehicle: methylcellulose (MC) 100 % of control

C=C(Cl)CSCCS
inactive: [2] 95 % of control | [4] 106 % of control

CS/C([S-])=N/[NH-].CS/C([S-])=N/[NH-].[Pd]
inactive: dose: 3.13 mg/kg/injection, schedule: Q01DX009 (ip), vehicle: saline with Tween-80 98 % of control | dose: 6.25 mg/kg/injection, schedule: Q01DX009 (ip), vehicle: saline with Tween-80 100 % of control | dose: 12.5 mg/kg/injection, schedule: Q01DX009 (ip), vehicle: saline with Tween-80 89 % of control

CC1CCCCN1CCCO (configuration not stated)
inactive: [12] 87 % of control | [13] 103 % of control | [14] 91 % of control | [15] 112 % of control | dose: 100.0 mg/kg/injection, schedule: Q01DX009 (ip), vehicle: saline 89 % of control | [7] 92 % of control and 95 % of control

COC(=O)c1ccccc1NN=Nc1ccccc1Cl
inactive: dose: 100.0 mg/kg/injection, schedule: Q01DX001 (ip), vehicle: saline 100 % of control | [7] 105 % of control | dose: 200.0 mg/kg/injection, schedule: Q01DX001 (ip), vehicle: saline 90 % of control | [8] 95 % of control | dose: 400.0 mg/kg/injection, schedule: Q01DX001 (ip), vehicle: saline 99 % of control | [9] 94 % of control

OC1COC(c2ccco2)OC1 (configuration not stated) (tested in a mixture with another compound)
inactive: [16] 94 % of control | [17] 102 % of control | [18] 105 % of control | [19] 101 % of control | dose: 400.0 mg/kg/injection, schedule: Q04DX003 (ip), vehicle: Klucel (hydroxypropylcellulose) (HPC) 102 % of control

OCC1CCC(n2cnc3c(=S)nc[nH]c32)C1 (configuration not stated)
inactive: [10] 102 % of control | [11] 102 % of control | dose: 400.0 mg/kg/injection, schedule: Q01DX001 (ip), vehicle: carboxymethylcellulose (CMC) 96 % of control

CN(C)C(CC(=O)c1ccccc1)C(=O)O (configuration not stated)
inactive: [7] 94 % of control | [8] 96 % of control

Cc1cc(O)c(C(C)(C)C)cc1N=O
inactive: dose: 50.0 mg/kg/injection, schedule: Q04DX003 (ip), vehicle: saline + alcohol 104 % of control | dose: 100.0 mg/kg/injection, schedule: Q04DX003 (ip), vehicle: saline + alcohol 101 % of control | dose: 200.0 mg/kg/injection, schedule: Q04DX003 (ip), vehicle: saline + alcohol 95 % of control

CCOC(=O)C1CC(C(=O)OCC)C(=O)C1=O (configuration not stated)
inactive: [2] 100 % of control | [4] 99 % of control | [6] 86 % of control

CCCCCCCCCCCC(=O)c1ccccc1
inactive: [16] 86 % of control | [18] 91 % of control | dose: 400.0 mg/kg/injection, schedule: Q01DX009 (ip), vehicle: Klucel (hydroxypropylcellulose) (HPC) 94 % of control

CCN(CC)CCC(CCN(CC)CC)(CNC(=O)CN(CC)CC)c1cccc2ccccc12
inactive: dose: 12.5 mg/kg/injection, schedule: Q01DX009 (ip), vehicle: saline 97 % of control | dose: 12.5 mg/kg/injection, schedule: Q04DX003 (ip), vehicle: saline 87 % of control | [12] 114 % of control | [13] 95 % of control | [14] 108 % of control | [15] 88 % of control

O=C(CCl)Nc1c(Cl)cc(Cl)cc1Cl
inactive: dose: 50.0 mg/kg/injection, schedule: Q04DX003 (ip), vehicle: Klucel (hydroxypropylcellulose) (HPC) 97 % of control | dose: 100.0 mg/kg/injection, schedule: Q01DX001 (ip), vehicle: Klucel (hydroxypropylcellulose) (HPC) 103 % of control | [17] 90 % of control | dose: 200.0 mg/kg/injection, schedule: Q01DX001 (ip), vehicle: Klucel (hydroxypropylcellulose) (HPC) 98 % of control | [19] 93 % of control | dose: 400.0 mg/kg/injection, schedule: Q01DX001 (ip), vehicle: Klucel (hydroxypropylcellulose) (HPC) 103 % of control

Cc1ccc(S(=O)(=O)N/N=C/c2ccccc2C)cc1
inactive: [1] 105 % of control | [2] 98 % of control | [3] 100 % of control | [4] 95 % of control | [5] 97 % of control | [6] 95 % of control
